In patent publication US20070141141A1, “Pharmaceutical composition” (ASTRAZENECA AB, priority 2003, published 2007):

Columns and labels:
[1] = pKa and pH dependent aqueous solubility of the Agent; type: physicochemical
[2] = system: non-small-cell lung cancer; conditions: 250 mg/day, non-small-cell lung cancer patients, IDEAL 1 and 2; cited from earlier work
pH 6.5 dissolution test = type: physicochemical; conditions: for % Agent in solution after 5 minutes in pH 6.5 medium / % Agent in solution after 30 minutes in pH 6.5 medium / % Agent in solution after 60 minutes in pH 6.5 medium: 37° C., 500 ml, 250 mg Agent; for Mean pH of medium at 60 minutes (n = 2) / Mean pH of medium at end of experiment (n = 2): pH 6.5 dissolution test; for Mean pH of medium at end of experiment (n = 2): final pH measured after 60 minutes
Method: The following test measures dissolution of a composition in a pH 6.5 dissolution medium and simulates the pH environment found in the upper intestine.
The composition to be tested was placed into a 500 ml of a stirred dissolution medium at pH 6.5 at 37° C. (paddle speed 100 rpm). […] A fresh sample of dissolution medium was added after every sampling time point to maintain a constant volume of 500 ml dissolution medium throughout the test.
The vial was then rinsed with a further 50 ml of fresh dissolution medium and the washings added to the main dissolution medium to ensure complete transfer of the composition (total volume of dissolution medium=500 ml).

[3] = pH shift dissolution test (pH 1.5 to 6.5); type: physicochemical; conditions: for % Agent in Solution t = 2 mins: 2 minutes after adjustment of medium from pH 1.5 to pH 6.5, 37° C.; for % Agent in Solution t = 30 mins: 30 minutes after adjustment of medium from pH 1.5 to pH 6.5, 37° C.; for % Agent in Solution t = 60 mins: 60 minutes after adjustment of medium from pH 1.5 to pH 6.5, 37° C.; for % Agent in Solution t = 0 (˜pH 1.5): % by weight dissolved after 60 minutes in 0.07N HCl/0.2% NaCl medium, 37° C., before pH shift, >100% from HPLC experimental error; for Mean pH of medium at 60 minutes after pH adjustment (n = 2): pH shift test, 60 minutes after adjustment from pH 1.5 to pH 6.5
Method: The vial was then rinsed with a further 50 ml of fresh dissolution medium and the washings added to the main dissolution medium to ensure complete transfer of the composition (total volume of medium 500 ml). The Control sample was weighed into a volumetric flask and pre-dissolved in 50 ml of dissolution medium via sonication. The composition was then added to 400 ml of dissolution medium. The flask was rinsed with a further 50 ml of fresh dissolution medium and the washings added to the main dissolution medium to ensure complete transfer of the composition (total volume of medium=500 ml). After 60 minutes at 37° C. (paddle speed 100 rpm) a sample (5 ml) was taken and 5 ml of fresh medium was added to retain a constant volume of dissolution medium.
The resulting solution was then made up to 100 ml with MilliQ water.
Samples (5 ml) were then removed with a plastic syringe at 2, 5, 15, 30, 45 and 60 minutes after pH adjustment and fresh medium (pH 6.5) added to maintain a constant volume of dissolution medium. […] ODS-3^1. (with guard) • detection wavelength: 247 nm • flow rate: 0.9 ml/min • injection volume: 20 μl • retention time: approximately 6 minutes
Footnote: column ex Hichrom containing 3 μm beads.

COc1cc2ncnc(Nc3ccc(F)c(Cl)c3)c2cc1OCCCN1CCOCC1 [Agent, 4-(3′-chloro4′-fluoroanilino)-7-methoxy-6-(3-morpholinopropoxy)quinazoline]
Solubility (in words) ([1]; free-base form, above pH 7): practically insoluble | Solubility (in words) ([1]; free-base form, pH 1): soluble | Solubility: aqueous solvent required to dissolve 1 g of Agent ([1]; free-base form, pH 6): ≥ 10000 mL | pKa ([1]; two basic groups): ~5.3 | adverse events [2]: majority of adverse events generally being mild to moderate skin and gastrointestinal disorders | response rates [2]: 11.8-18.4% | % Agent in solution after 5 minutes in pH 6.5 medium (pH 6.5 dissolution test; listed as Control): 0.70% | % Agent in solution after 30 minutes in pH 6.5 medium (pH 6.5 dissolution test; listed as Control): 1.52% | % Agent in solution after 60 minutes in pH 6.5 medium (pH 6.5 dissolution test; listed as Control): 1.40% | Mean pH of medium at 60 minutes (n = 2) (pH 6.5 dissolution test; listed as Control): 6.52 | Mean pH of medium at end of experiment (n = 2) (pH 6.5 dissolution test; listed as Control): 6.52 | % Agent in Solution t = 2 mins ([3]; listed as Control): 6.50% | % Agent in Solution t = 30 mins ([3]; listed as Control): 3.04% | % Agent in Solution t = 60 mins ([3]; listed as Control): 2.27% | % Agent in Solution t = 0 (˜pH 1.5) ([3]; listed as Control): 102.61% | Mean pH of medium at 60 minutes after pH adjustment (n = 2) ([3]; listed as Control): 6.55

COc1cc2ncnc(Nc3ccc(F)c(Cl)c3)c2cc1OCCCN1CCOCC1 [Comparative 4, 4-(3′-chloro4′-fluoroanilino)-7-methoxy-6-(3-morpholinopropoxy)quinazoline]
% Agent in solution after 5 minutes in pH 6.5 medium (pH 6.5 dissolution test): 3.52% | % Agent in solution after 30 minutes in pH 6.5 medium (pH 6.5 dissolution test): 1.54% | % Agent in solution after 60 minutes in pH 6.5 medium (pH 6.5 dissolution test): 1.21% | % Agent in solution after 60 minutes in pH 6.5 medium (pH 6.5 dissolution test; listed as Comparative Example 4): 1.21% | Mean pH of medium at 60 minutes (n = 2) (pH 6.5 dissolution test): 6.33 | Mean pH of medium at end of experiment (n = 2) (pH 6.5 dissolution test): 6.33 | % Agent in Solution t = 2 mins [3]: 19.56% | % Agent in Solution t = 30 mins [3]: 5.16% | % Agent in Solution t = 60 mins [3]: 3.30% | % Agent in Solution t = 0 (˜pH 1.5) [3]: 97.74% | Mean pH of medium at 60 minutes after pH adjustment (n = 2) [3]: 6.32
